Source: patent US8916567B2, “Certain crystalline hydrates, pharmaceutical compositions thereof and methods for preparation and use thereof” (Universal Technology Alliance, Inc., priority 2009, dated 2014)

How the values were obtained:
[1] = tested on: Staphylococcus aureus MRSA; experiment: Minimum inhibitory concentration (MIC) in vitro, agar dilution method; format: cell-based; details: hydrate
How it was run: (§1)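 MIC50, MIC90 and MIC range were compiled from per-strain MICs obtained by the agar dilution method recommended by CLSI/NCCLS, using clinically isolated strains from Sichuan and Beijing.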

[2] = tested on: Staphylococcus aureus MSSA; experiment: as above; format: cell-based; details: hydrate
How it was run: as §1

E. feacalis = experiment: as above; format: cell-based; details: hydrate
How it was run: as §1

S. epidermidis MRSE = experiment: as above; format: cell-based; details: hydrate
How it was run: as §1

E. feacium = experiment: as above; format: cell-based; details: hydrate
How it was run: as §1

S. epidermidis MSSE = experiment: as above; format: cell-based; details: hydrate
How it was run: as §1

Staphylococcus aureus = experiment: Minimum inhibitory concentration (MIC) in vitro, agar dilution method, quality control strain; format: cell-based; details: strain S. AT C C25923 (Table 7 No. 1); hydrate
Text: Hydrates Samples: • The 1/2 hydrates prepared according to Example 2; • Content (purity % wt): 99.0%; • The 1/12 hydrates prepared according to Example 253; • Content (purity % wt): 98.9%; • The 2/7 hydrates prepared according to Example 106; • Content (purity % wt): 98.8%; • The 2/5 hydrates prepared according to Example 162; • Content (purity % wt): 99.0%; • The 3/4 hydrates prepared according to Example 337; • Content (purity % wt): 98.8%; • Preparation: dissolved in DMSO, and further diluted with sterile distilled water to desired concentration. • The hydrates samples were supplied by Sichuan Beilike Biotechnology LTD.
Anhydrous Sample: • The anhydrous compounds prepared according to Example 1. • Content (purity % wt): 98.6%; • Preparation: dissolved in DMSO, and further diluted with sterile distilled water to desired concentration; • The anhydrous sample was supplied by Sichuan Beilike Biotechnology LTD.
Control Samples • Vancomycin: provided by Sichuan Beilike Biotechnology LTD, purchased from Eli Lilly Japan K.K. • Lot No.: WM16151 (production date: Apr. 10, 2007, expiration date: Apr. 9, 2009). • Specification: 500 mg/bottle; solubility (physicochemical properties): soluble in water. • Linezolid (LZ): provided by Sichuan Beilike Biotechnology LTD.
Bacteria Strains • Clinically isolated strains: clinically isolated bacterial pathogens collected in Sichuan and Beijing areas from March 2007 to May 2008. • Species include: Staphylococcus aureus MRSA, Staphylococcus aureus MSSA, S. epidermidis MRSE, S. epidermidis MSSE, E. feacalis, and E. feacium, a total of 51 strains. • Quality control strains: Staphylococcus aureus […] strain kept in Sichuan Industrial Institute of Antibiotics, purchased from the medical testing center of the Ministry of Health, China.
Experimental Method: • Measurement of the minimum inhibitory concentration (MIC) in vitro: • The minimum inhibitory concentration (MIC) of each test sample against test strains was measured by using the agar dilution method recommended by the U.S. National Committee for Clinical Laboratory Standards (CLSI/NCCIs).
Based on the CLSI/NCCL's testing standard with respect to vancomycin and linezolid (see Table 6), the minimum inhibitory concentration (MIC) values of every strain were reported, and the MIC50 (the concentration that inhibits 50% of the different strains of bacteria), MIC90 (the concentration that inhibits 90% of the different strains of bacteria), and MICrange (the range of the MIC value of the tested strains) were observed.

[3] = Solubility in different solvents according to Chinese Pharmacopeia (2005 edition); format: physicochemical; details: for Result: at the given solute:solvent ratio
Method: The solubility of the (S)—[N-3-(3′-fluoro-4′-(4″-phenylpiperazinyl))phenyl-2-oxo-5-oxazolelidinyl]methylacetamide hydrates was tested with different solvents, and the test results are shown in Tables 15-19. The solubility was measured according to Chinese Pharmacopeia (2005 edition).

[4] = S. MRSA (10 strains), clinically isolated
[5] = S. MSSA (11 strains), clinically isolated
[6] = E. feacalis (5 strains), clinically isolated
[7] = S. ep MRSE (10 strains), clinically isolated
[8] = E. feacium (5 strains), clinically isolated
[9] = S. ep MSSE (10 strains), clinically isolated

`CC(=O)NC[C@H]1CN(c2ccc(N3CCN(c4ccccc4)CC3)c(F)c2)C(=O)O1` [1/12 hydrate, (S)—[N-3-(3′-fluoro-4′-(4″-phenylpiperazinyl))phenyl-2-oxo-5-oxazolidinyl]methyl acetamide 1/12 hydrate] gave an MIC50 [1, 4] of 0.5 µg/mL, an MIC90 [1, 4] of 0.5 µg/mL and an MICrange [1, 4] of 0.25 to 0.5 µg/mL. It also gave an MIC ([1]; strain S. MRSA 29 (Table 7 No. 15)) of 1 µg/mL, an MIC ([1]; strain S. MRSA 101 (Table 7 No. 14)) of 0.5 µg/mL and an MIC ([1]; strain S. MRSA 201 (Table 7 No. 13)) of 0.5 µg/mL. For the same molecule, the MIC ([1]; strain S. MRSA B27 (Table 7 No. 21)) was 0.5 µg/mL, the MIC ([1]; strain S. MRSA B105 (Table 7 No. 17)) was 0.5 µg/mL and the MIC ([1]; strain S. MRSA B143 (Table 7 No. 19)) was 0.5 µg/mL. It also gave an MIC ([1]; strain S. MRSA B151 (Table 7 No. 20)) of 0.5 µg/mL, an MIC ([1]; strain S. MRSA B164 (Table 7 No. 16)) of 0.5 µg/mL and an MIC ([1]; strain S. MRSA B199 (Table 7 No. 22)) of 1 µg/mL. It also gave an MIC ([1]; strain S. MRSA B617 (Table 7 No. 18)) of 0.25 µg/mL, an MIC50 [2, 5] of 0.5 µg/mL and an MIC90 [2, 5] of 0.5 µg/mL. It also gave an MICrange [2, 5] of 0.25 to 0.5 µg/mL, an MIC ([2]; strain S. MSSA 123 (Table 7 No. 3)) of 0.5 µg/mL and an MIC ([2]; strain S. MSSA 187 (Table 7 No. 7)) of 0.5 µg/mL. The MIC ([2]; strain S. MSSA 195 (Table 7 No. 6)) was 0.5 µg/mL, the MIC ([2]; strain S. MSSA 195 (Table 7 No. 12)) was 0.5 µg/mL and the MIC ([2]; strain S. MSSA 201 (Table 7 No. 11)) was 0.25 µg/mL. The MIC ([2]; strain S. MSSA 232 (Table 7 No. 2)) was 0.5 µg/mL, the MIC ([2]; strain S. MSSA 275 (Table 7 No. 10)) was 1 µg/mL and the MIC ([2]; strain S. MSSA 466 (Table 7 No. 8)) was 0.25 µg/mL. It also gave an MIC ([2]; strain S. MSSA 519 (Table 7 No. 9)) of 0.5 µg/mL, an MIC ([2]; strain S. MSSA 520 (Table 7 No. 4)) of 0.5 µg/mL and an MIC ([2]; strain S. MSSA 580 (Table 7 No. 5)) of 0.25 µg/mL. For the same molecule, the MIC50 (E. feacalis; [6]) was 0.125 µg/mL, the MIC90 (E. feacalis; [6]) was 0.25 µg/mL and the MICrange (E. feacalis; [6]) was 0.06 to 0.25 µg/mL. The MIC (E. feacalis; strain Efa 116 (Table 8 No. 16)) was 0.25 µg/mL, the MIC (E. feacalis; strain Efa 907 (Table 8 No. 19)) was 0.06 µg/mL and the MIC50 (S. epidermidis MRSE; [7]) was 0.25 µg/mL. The MIC90 (S. epidermidis MRSE; [7]) was 0.5 µg/mL, the MICrange (S. epidermidis MRSE; [7]) was 0.06 to 0.5 µg/mL and the MIC (S. epidermidis MRSE; strain S. ep MRSE4 (Table 8 No. 9)) was 0.125 µg/mL. It also gave an MIC (S. epidermidis MRSE; strain S. ep MRSE20 (Table 8 No. 6)) of 0.25 µg/mL, an MIC (S. epidermidis MRSE; strain S. ep MRSE87 (Table 8 No. 13)) of 0.25 µg/mL and an MIC (S. epidermidis MRSE; strain S. ep MRSE90 (Table 8 No. 10)) of 0.125 µg/mL. The MIC (S. epidermidis MRSE; strain S. ep MRSE101 (Table 8 No. 7)) was 0.06 µg/mL, the MIC (S. epidermidis MRSE; strain S. ep MRSE105 (Table 8 No. 11)) was 0.25 µg/mL and the MIC (S. epidermidis MRSE; strain S. ep MRSE140 (Table 8 No. 14)) was 0.5 µg/mL. It also gave an MIC (S. epidermidis MRSE; strain S. ep MRSE142 (Table 8 No. 12)) of 0.25 µg/mL, an MIC (S. epidermidis MRSE; strain S. ep MRSE210 (Table 8 No. 15)) of 0.25 µg/mL and an MIC (S. epidermidis MRSE; strain S. ep MRSE211 (Table 8 No. 8)) of 0.25 µg/mL. It also gave an MIC50 (E. feacium; [8]) of 0.5 µg/mL, an MIC90 (E. feacium; [8]) of 1 µg/mL and an MICrange (E. feacium; [8]) of 0.25 to 1 µg/mL. The MIC (E. feacium; strain Efm 98 (Table 8 No. 21)) was 0.25 µg/mL, the MIC (E. feacium; strain Efm 171 (Table 8 No. 25)) was 0.5 µg/mL and the MIC (E. feacium; strain Efm 197 (Table 8 No. 22)) was 0.5 µg/mL. The MIC (E. feacium; strain Efm N3 (Table 8 No. 23)) was 1 µg/mL, the MIC (E. feacium; strain Efm N4 (Table 8 No. 24)) was 0.5 µg/mL and the MIC50 (S. epidermidis MSSE; [9]) was 0.25 µg/mL. It also gave an MIC90 (S. epidermidis MSSE; [9]) of 0.5 µg/mL, an MICrange (S. epidermidis MSSE; [9]) of 0.125 to 0.5 µg/mL and an MIC (S. epidermidis MSSE; strain S. ep MSSE87 (Table 7 No. 23)) of 0.125 µg/mL. It also gave an MIC (S. epidermidis MSSE; strain S. ep MSSE88 (Table 8 No. 5)) of 0.5 µg/mL, an MIC (S. epidermidis MSSE; strain S. ep MSSE113 (Table 7 No. 24)) of 0.25 µg/mL and an MIC (S. epidermidis MSSE; strain S. ep MSSE116 (Table 7 No. 25)) of 0.125 µg/mL. For the same molecule, the MIC (S. epidermidis MSSE; strain S. ep MSSE118 (Table 8 No. 2)) was 0.5 µg/mL, the MIC (S. epidermidis MSSE; strain S. ep MSSE119 (Table 7 No. 27)) was 0.125 µg/mL and the MIC (S. epidermidis MSSE; strain S. ep MSSE137 (Table 8 No. 4)) was 0.5 µg/mL. It also gave an MIC (S. epidermidis MSSE; strain S. ep MSSE140 (Table 8 No. 3)) of 0.5 µg/mL, an MIC (S. epidermidis MSSE; strain S. ep MSSE142 (Table 7 No. 26)) of 0.5 µg/mL and an MIC (S. epidermidis MSSE; strain S. ep MSSE153 (Table 8 No. 1)) of 0.5 µg/mL. For the same molecule, the MIC (Staphylococcus aureus) was 0.5 µg/mL, the “Solubility compared with the anhydride” value ([3]; different solvents) was “sometimes more soluble than the anhydride” and the Result ([3]; solvent 0.1N Hydrochloric acid) was “Dissolved”. For the same molecule, the Result ([3]; solvent 0.1N Sodium hydroxide) was “Insoluble”, the Result ([3]; solvent Acetonitrile) was “Dissolved” and the Result ([3]; solvent Ethanol) was “Dissolved”. The Result ([3]; solvent Methanol) was “Dissolved” and the Result ([3]; solvent Water, hydrate) was “Dissolved”.
